Laboratory results published in patent publication US11395857B2, “Radiolabeled melanocortin 1 receptor-specific alpha-melanocyte-stimulating hormone analogues for imaging or therapy” (PROVINCIAL HEALTH SERVICES AUTHORITY, priority 2018, dated 2022).

Assays:
[1] = In vivo stability in mouse urine at 1 h p.i. (radio-HPLC); parameters: species or system C57BL/6J mice
Experimental: All animal experiments were conducted in according to the guidelines established by Canadian Council on Animal Care and approved by Animal Ethics Committee of the University of British Columbia. Mice were housed under pathogen-free conditions and kept on twelve hours light and twelve hours dark cycle in the Animal Research Centre, BC Cancer Research Centre, Vancouver, Canada. C57BL/6J mice were anesthetized by inhalation with 2% isoflurane in 2.0 L/min of oxygen, and approximately 4-6 MBq of [^68Ga]Ga-CCZ01099 or [^68Ga]Ga-CCZ01048 was injected intravenously. The mice were allowed to recover and roam freely in their cages. At 1 h post-injection (p.i.), the mice were euthanized by CO2 inhalation and their urine was collected and analyzed on HPLC for metabolite using the conditions described above. In vivo urine stability of [^68Ga]Ga-CCZ01099 and [^68Ga]Ga-CCZ01048 were 34.0±10.4% and ≥98.0% (n≥3), respectively.
The in vivo stability tests in mouse urine were performed as described in Example 1. […] With systematic reduction in the number of N-methylations for the αMSH analogues, a decrease in in vivo stability was observed.

B16F10 cells = assay: In vitro competition binding assay on B16-F10 cells vs 125I-[Nle4,D-Phe7]-alpha-MSH; parameters: species or system Mus musculus; conditions: natGa-coupled peptides
Experimental: The B16-F10 melanoma cell line (Mus musculus) used in the tumor model was obtained commercially from ATTC (CRL-6475). Cells were cultured in Dulbecco's Modified Eagle's Medium (DMEM, StemCell Technologies) supplemented by 10% FBS, 100 U/mL penicillin and 100 μg/mL streptomycin at 37° C. in a humidified incubator containing 5% CO2. Cells grown to roughly 90% confluence were washed with sterile phosphate-buffered saline (lx PBS, pH 7.4), followed by trypsinization. For tumour implantation, C57BL/6J mice were anesthetized by inhalation with 2% isoflurane in 2.0 L/min of oxygen, 2×10^6 B16-F10 cells were inoculated subcutaneously on right dorsal flank. Mice were imaged or used in biodistribution studies once the tumour reached 6-8 mm in diameter.
In vitro competitive binding assays were performed using B16-F10 cells and the cell culture method described in Example 1. 500,000 cells/well were seeded onto a 24 well poly-D-lysine coated plate (Corning) overnight. Growth media was removed, and reaction buffer containing 4.8 mg/mL HEPES, […] penicillin/[…] and 2 mg/mL BSA was added, and allowed to incubate with cells at 37° C. for at least an hour. Peptide of interest and ^125I-[Nle^4, D-Phe^7]-alpha-MSH (Perkin Elmer) were added to each well. The binding of ^125I-[Nle^4, D-Phe^7]-alpha-MSH was competed by non-radioactive gallium coupled CCZ01103, CCZ01104, CCZ01105, CCZ01106 or CCZ01114 at increasing concentrations from 0.5 pmol/mL to […]. The reaction mixture was incubated at 25° C. with moderate shaking for 1 h. After the incubation, the reaction mixture was removed, and cells were washed with ice-cold PBS twice. 0.25% Trypsin solution was used to harvest the cells and radioactivity was measured using a Wallac WIZARD2 gamma counter (Perkin Elmer).

SK-MEL-1 human melanoma = assay: SPECT/CT imaging of mice bearing SK-MEL-1 human melanoma; assay type: in vivo, NRG mice; conditions: 24 h p.i.
Experimental: SPECT/CT imaging experiments were conducted using the same conditions as described in Example 3. […] (FIG. 6).

B16-F10 tumours = conditions: Zhang et al., 2017 Theranostics; cited from earlier work

Structure (SMILES)	In vivo urine stability, intact tracer [1] [%]	Binding affinity (comparison among the five analogues) (B16F10 cells)	Tumour uptake / retention in SPECT images (SK-MEL-1 human melanoma)	further results
CCCC[C@H](NC(=O)CN1CCC(NC(=O)CN2CCN(CC(=O)O)CCN(CC(=O)O)CCN(CC(=O)O)CC2)CC1)C(=O)N[C@H]1CC(=O)NCCCC[C@@H](C(N)=O)N(C)C(=O)[C@H](Cc2c[nH]c3ccccc23)NC(=O)[C@H](CCCNC(=N)N)N(C)C(=O)[C@@H](Cc2ccccc2)NC(=O)[C@H](Cc2c[nH]cn2)NC1=O [CCZ01106, DOTA-Pip-Nle-cyclo[Asp-His-D-Phe-(N-Me-Arg)-Trp-(N-Me-Lys)]—NH2]	82.5±1.8	highest binding affinity	–	Ki (B16F10 cells; n ≥ 3, read-out: Inhibition constants (Ki) on B16F10 cells): 1.5 ± 0.1 nM
CCCC[C@H](NC(=O)CN1CCC(NC(=O)CN2CCN(CC(=O)O)CCN(CC(=O)O)CCN(CC(=O)O)CC2)CC1)C(=O)N[C@H]1CC(=O)NCCCC[C@@H](C(N)=O)NC(=O)[C@H](Cc2c[nH]c3ccccc23)NC(=O)[C@H](CCCNC(=N)N)N(C)C(=O)[C@@H](Cc2ccccc2)NC(=O)[C@H](Cc2c[nH]cn2)NC1=O [CCZ01114, DOTA-Pip-Nle-cyclo[Asp-His-D-Phe-(N-Me-Arg)-Trp-Lys]-NH2]	–	highest binding affinity	–	–
CCCC[C@H](NC(=O)CN1CCC(NC(=O)[C@H](CCCCNC(=O)CN2CCN(CC(=O)O)CCN(CC(=O)O)CCN(CC(=O)O)CC2)NC(=O)CNC(=O)CCCc2ccc(I)cc2)CC1)C(=O)N[C@H]1CC(=O)NCCCC[C@@H](C(N)=O)N(C)C(=O)[C@H](Cc2c[nH]c3ccccc23)NC(=O)[C@H](CCCNC(=N)N)N(C)C(=O)[C@@H](Cc2ccccc2)NC(=O)[C@H](Cc2c[nH]cn2)NC1=O [CCZ01148]	–	–	showed improved the tumour retention	–
CCCC[C@H](NC(=O)CN1CCC(NC(=O)[C@H](CCCCNC(=O)CN2CCN(CC(=O)O)CCN(CC(=O)O)CCN(CC(=O)O)CC2)NC(=O)CNC(=O)CCCc2ccc(C)cc2)CC1)C(=O)N[C@H]1CC(=O)NCCCC[C@@H](C(N)=O)N(C)C(=O)[C@H](Cc2c[nH]c3ccccc23)NC(=O)[C@H](CCCNC(=N)N)N(C)C(=O)[C@@H](Cc2ccccc2)NC(=O)[C@H](Cc2cnc[nH]2)NC1=O [CCZ01158]	–	–	showed improved the tumour retention	Blood uptake in SPECT images (SK-MEL-1 human melanoma): Lower blood uptake was observed
CCCC[C@H](NC(=O)CN1CCC(NC(=O)CN2CCN(CC(=O)O)CCN(CC(=O)O)CCN(CC(=O)O)CC2)CC1)C(=O)N[C@H]1CC(=O)NCCCC[C@@H](C(N)=O)NC(=O)[C@H](Cc2c[nH]c3ccccc23)NC(=O)[C@H](CCCNC(=N)N)NC(=O)[C@@H](Cc2ccccc2)NC(=O)[C@H](Cc2c[nH]cn2)NC1=O [[^68Ga]Ga-CCZ01048, metal not drawn, reference compound]	≥ 98.0	–	–	Thyroid uptake on PET images (B16-F10 tumours): thyroid uptake was clearly observed
